# According to patent US20110207807A1, “NEW USE FOR HOMOISOFLAVONE OR A SALT THEREOF” (Catholic University Industry Academy Cooperation Foundation, priority 2008, published 2011):
# Tests used:
# [1] = test system: leukotriene B4; test: Release of leukotriene B4 induced by PMA and A23187 in HMC-1 (enzyme immunoassay); format: cell-based, human
# Description: Phorbol 12-myristate 13-acetate and A23187 lead to degranulation of human mast cells (HMC), causing the mast cells to release not only their histamine or serotonin but also newly produced inflammatory factors such as pro-inflammatory cytokines, prostaglandins and leukotrienes. It was investigated whether homoisoflavanone has anti-inflammatory effect in mast cells as in Examples 4 and 5. In order to investigate the effect of homoisoflavanone on the release of leukotriene induced by phorbol 12-myristate 13-acetate and A23187 in HMC-1, 1×10^6 HMC-1 cells were inoculated on a 100-mm culture dish and cultured in Iscove's modified Dulbecco's medium (IMDM, GIBCO) containing 10% FBS for 48 hours. Then, after treating with homoisoflavanone at 2 μg/mL or with mizolastine at 10 μg/mL for comparison for 1 hour, the cells were treated with 50 nM phorbol 12-myristate 13-acetate and 1 μM A23187 to induce release of leukotriene, and then further cultured for 21 hours. Then, the supernatant was collected and the quantity of released leukotriene B4 and C4 was measured using a leukotriene B4, C4 enzyme immunoassay kit (Sapphire Bioscience, Australia).
# [2] = test system: IL-8; test: IL-8 mRNA expression induced by PMA and A23187 in HMC-1 (real-time PCR); format: cell-based, human; details: HMC-1, 2 μg/mL, 50 nM PMA + 1 μM A23187, 5 hours (FIG. 6d)
# Protocol: In order to investigate the effect of homoisoflavanone on the release of pro-inflammatory cytokines induced by phorbol 12-myristate 13-acetate and A23187 in HMC-1, 5×10^5 HMC-1 cells were inoculated on a 60-mm culture dish and cultured in IMDM containing 10% FBS for 48 hours. Then, after treating with homoisoflavanone at 2 μg/mL, the cells were treated with 50 nM phorbol 12-myristate 13-acetate and 1 μM A23187 to induce release of pro-inflammatory cytokines, and then further cultured for 5 hours.
# After extracting RNA from the cells of each test group using TRIzol, cDNA was prepared by carrying out PCR using the RNA as a template. Then, the mRNA expression of IL-6 and IL-8 was measured through real-time PCR using the cDNA as template and using commercially available IL-6 and IL-8 primers. The expression level of the pro-inflammatory cytokines was compared relative to the non-treated group.
# [3] = test system: hairless mouse (SKH-1); test: Ear edema induced by phorbol 12-myristate 13-acetate in animal model; format: in vivo
# Protocol: In order to confirm the in vitro test result on the human keratinocytes HaCaT cells in an animal model, experiment was performed as follows using hairless mouse (SKH-1). Test groups are as follows: non-treated group—treated not with phorbol 12-myristate 13-acetate but only with acetone (TPA); test group A—treated with 1 μg/10 μL homoisoflavanone or 50 μg/10 μL dexamethasone; control group (TPA)-treated with 100 μM phorbol 12-myristate 13-acetate; test group B—treated with 1 μg/10 μL homoisoflavanone or 50 μg/10 μL dexamethasone as well as 100 μM phorbol 12-myristate 13-acetate.
# One hour before treating with phorbol 12-myristate 13-acetate, 1 μg/10 μL homoisoflavanone or 50 μg/10 μL dexamethasone was applied on the front and rear parts of the ear, 5 μL each. Then, 6 hour after the application of phorbol 12-myristate 13-acetate, ear thickness and weight were measured.
# In order to investigate overall change in the skin tissue, hematoxylin-eosin staining was carried out.
# [4] = test system: BALE/c mice; test: Ear edema induced by UV radiation in animal model; format: in vivo, mouse; details: UV 7.5 kJ/m^2, 72 hours after UV (FIG. 10a)
# Protocol: BALE/c mice were subdivided into a non-treated group (treated with acetone only without UV radiation), a control group (irradiated with UV at 7.5 kJ/m^2) and a test group (treated with 0.6 or 1 μg/10 μL homoisoflavanone and irradiated with UV at 7.5 kJ/m^2). Then, the effect on ear edema induced by UV radiation was investigated.
# One hour before irradiating UV at 7.5 kJ/m^2, 1 μg/10 μL homoisoflavanone was applied on the front and rear parts of the ear, 5 μL each. Then, 72 hours after UV radiation, ear thickness was measured.
# [5] = test system: p38; test: UV-induced p38 phosphorylation in HaCaT cells (Western blot); format: cell-based, human; details: 1 μg/mL, UV (FIG. 2c)
# Protocol: In order to identify the intracellular factors affecting COX-2 expression that are affected by homoisoflavanone, Western blotting was carried out in the same manner as in Example 2-1 except for treating with homoisoflavanone at 1 μg/mL, irradiating UV for 45 minutes and using rabbit anti-p-cytosolic phospholipase A2 (cPLA2) antibody, rabbit anti-cPLA2 antibody, rabbit anti-ERK antibody, rabbit anti-p-ERK antibody, rabbit anti-p38 antibody or rabbit anti-p-p38 antibody and using anti-rabbit IgG-HRP conjugation antibody (Zymed) as secondary antibody. Positive control groups were treated with 1 μM SB203580 (A.G. Scientific, Inc.) as p38 inhibitor or 10 μM PD98059 (A.G. Scientific, Inc.) as MEK 1 inhibitor instead of homoisoflavanone.
# [6] = test system: BALB/c mouse; test: Ear edema induced by arachidonic acid in animal model; format: in vivo; details: topical 1 μg/10 μL homoisoflavanone or 50 μg/10 μL dexamethasone 1 h before arachidonic acid 100 mg/mL 10 μL, 1 hour after AA, vs AA control (FIG. 5a, 5b)
# Protocol: Experiment was carried out as follows using BALB/c mouse. Test groups are as follows: non-treated group—treated not with arachidonic acid (AA) but only with acetone; control group (AA)-treated with arachidonic acid; test group A—treated with 1 μg/10 μL homoisoflavanone or 50 μg/10 μL dexamethasone as well as 100 mg/mL 10 μL arachidonic acid.
# One hour before treating with arachidonic acid, 1 μg/10 μL homoisoflavanone or 50 μg/10 μL dexamethasone was applied on the front and rear parts of the ear, 5 μL each. Then, 1 hour after applying 100 mg/mL 10 μL arachidonic acid, ear thickness and weight were measured.
# [7] = topical 1 μg/10 μL homoisoflavanone or 50 μg/10 μL dexamethasone 1 h before 100 μM TPA, 6 hour after TPA, vs TPA control (FIG. 4a, 4b)
smiles,measurement,setting,value
COc1ccc(CC2COc3cc(O)cc(O)c3C2=O)cc1O (centres unmarked) [homoisoflavanone],"leukotriene B4 release when treated alone, versus non-treated group","[1]; HMC-1, homoisoflavanone 2 μg/mL or mizolastine 10 μg/mL alone, without PMA/A23187 (FIG. 6a)",no appreciable difference
same,inhibition of release of leukotriene B4,"[1]; HMC-1, homoisoflavanone 2 μg/mL or mizolastine 10 μg/mL, 50 nM PMA + 1 μM A23187, 21 hours (FIG. 6a)",70%
same,inhibition of release (mRNA expression) of IL-8,[2],50%
same,hyperplasia in the epidermis (hematoxylin-eosin staining),[3]; 1 μg/10 μL homoisoflavanone or 50 μg/10 μL dexamethasone plus TPA (FIG. 4c),significantly reduced
same,ear thickness,[3]; [7],decrease
same,ear weight,[3]; [7],decrease
same,decrease in ear thickness,[4]; 0.6 μg/ear topical,44%
same,decrease in ear thickness,[4]; 1 μg/ear topical,52%
same,phosphorylation of p38,[5],inhibited
same,ear thickness,[6],decrease
same,ear weight,[6],decrease
